Assay results: PubChem BioAssay (NCI)
Several values for one entry are separate records, joined by “and”; a condition that tells them apart may be missing. Equal values may be shown once.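 Five compound concentrations were applied to cells in 96-well plates for 48 hours; endpoints were derived by simple linear interpolation of the resulting dose-response curve. At the GI50, growth is halved. Definition used: TGI = concentration required for complete inhibition of growth.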

Columns and labels:
Test in all cases: inhibition of tumour cell growth, NCI panel, 48 h
UO-31 renal = system: UO-31 renal
HL-60(TB) leukemia = system: HL-60(TB) leukemia
NCI-H522 lung = system: NCI-H522 lung
LOX IMVI melanoma = system: LOX IMVI melanoma
TK-10 renal = system: TK-10 renal
UACC-62 melanoma = system: UACC-62 melanoma
HOP-92 NSCLC = system: HOP-92 NSCLC
KM12 colon = system: KM12 colon
OVCAR-4 ovarian = system: OVCAR-4 ovarian
MCF7 breast = system: MCF7 breast

Structure (SMILES)	TGI (UO-31 renal)	TGI (HL-60(TB) leukemia) [µM]	TGI (NCI-H522 lung)	TGI (LOX IMVI melanoma) [µM]	TGI (TK-10 renal)	TGI (UACC-62 melanoma)	TGI (HOP-92 NSCLC)	TGI (KM12 colon)	TGI (OVCAR-4 ovarian)	GI50 (UO-31 renal) [µM]	GI50 (HL-60(TB) leukemia) [µM]	GI50 (NCI-H522 lung) [µM]	GI50 (LOX IMVI melanoma) [µM]	GI50 (TK-10 renal) [µM]	GI50 (UACC-62 melanoma) [nM]	GI50 (HOP-92 NSCLC) [nM]	GI50 (KM12 colon) [µM]	GI50 (OVCAR-4 ovarian) [µM]	GI50 (MCF7 breast) [µM]	TGI (MCF7 breast) [µM]
COc1cc2nncc(Sc3cnnc4ccccc34)c2cc1OC	47.9 µM	70.5	29.8 µM	63.8	81.3 µM	> 100 µM	> 100 µM	56.5 µM	> 100 µM											
CC(C)N(C(C)C)[PH+]1O[PH+](N(C(C)C)C(C)C)O[PH+](N(C(C)C)C(C)C)O[PH+](N(C(C)C)C(C)C)O[PH+](N(C(C)C)C(C)C)O1.[C-]#[O+].[C-]#[O+].[C-]#[O+].[C-]#[O+].[C-]#[O+].[C-]#[O+].[C-]#[O+].[Cr].[Cr] (stereo not drawn)	> 100 µM	> 100	> 100 µM	> 100	> 100 µM	> 100 µM	> 100 µM	> 100 µM	> 100 µM	> 100	> 100	> 100	> 100	> 100	> 100000	> 100000	> 100	> 100		
COC(=O)c1nc(NN)[nH]c(=O)c1CCCCCc1c(C(=O)OC)[nH]c(NN)cc1=O	> 100 µM	> 100	> 100 µM	> 100	> 100 µM	> 100 µM	> 100 µM	> 100 µM	> 100 µM											
COC(=O)C1=C(OC(=O)c2ccc(Cl)cc2)C(C(=O)OC)[C@@]2(O)[C@@H](C(=O)OC)C(c3ccccc3C(F)(F)F)C[C@@H]1[C@@H]2C(=O)OC (stereo partly drawn)	31.6 µM		43.6 µM		78.8 µM	3.65 µM	> 100 µM	64.2 µM		12.6		16.4		33	1800	6270	23.9		10.7	87.5
CC(C)c1cccc(C(C)C)c1NC(=O)C(=O)C(C(=O)c1ccccc1-c1ccccc1)C1OC(=O)c2ccccc21 (stereo not drawn)	36.5 µM		30.5 µM	31.1	46.1 µM	44.1 µM		32.9 µM	45.9 µM											
Cc1nc2c(n1CC(C)(C)C)C(=O)c1ccccc1C2=O	> 100 µM	> 100	> 100 µM	> 100	> 100 µM	> 100 µM	> 100 µM	> 100 µM	> 100 µM											
N=C(N)SCc1cn2ccccc2n1	> 100 µM	> 100	> 100 µM	> 100	> 100 µM			> 100 µM	> 100 µM											
C[C@]12CC[C@@H]3c4ccc(O)c([N+](=O)[O-])c4CC[C@H]3[C@@H]1CC[C@@H]2NS(=O)(=O)c1ccc(C(F)(F)F)cc1	3.19 µM		3.48 µM	3.07	7.26 µM	2.78 µM	2.62 µM	3.51 µM	8.88 µM	1.5		1.61	1.67	2.77	1340	1120	1.76	2.44	1.91	4.23
COc1cc(C2c3cc4c(cc3[C@@H](Nc3ccc(N(C)C)cc3)[C@H]3COC(=O)C23)OCO4)cc(OC)c1O (stereo partly drawn)	3.27 µM and 6.69 µM	2.51	2.29 µM and 2.56 µM	17.6	11.6 µM and 27.2 µM	1.53 µM and 2.28 µM	11.4 µM and 17 µM	4.49 µM and 14.3 µM	18.7 µM and 25.8 µM	1.47		1.18		8.85	347	807	3.34	13		
CSc1nc2c(c(O)c(C)c(=O)n2C2OC(COC(C)=O)C(OC(C)=O)C(OC(C)=O)C2OC(C)=O)c(=O)n1C (stereo not drawn)	> 100 µM	> 100	> 100 µM	> 100	> 100 µM	> 100 µM	> 100 µM	> 100 µM	> 100 µM											
O=C(C(=O)c1ccc(Cc2ccc(C(=O)C(=O)c3ccccc3)cc2)cc1)c1ccccc1	> 100 µM	> 100	> 100 µM	> 100	> 100 µM	> 100 µM	> 100 µM	> 100 µM	> 100 µM											
O=c1nc(-c2ccccc2)c2c3c(cccn13)CCC2	> 100 µM	> 100	> 100 µM	> 100	> 100 µM	> 100 µM	> 100 µM	> 100 µM	> 100 µM											
O=C1c2ccccc2N2OC3(N4CCCC4)CCCC3C12c1ccccc1 (stereo not drawn)	> 100 µM	> 100	> 100 µM			> 100 µM	> 100 µM		> 100 µM											
COc1ccc(-n2nnc3c(sc4ccccc43)c2=O)cc1		> 100	> 100 µM	> 100		> 100 µM		> 100 µM			> 100	> 100	> 100		> 100000		> 100		> 100	> 100
CC(=O)N(CCN)CCN	> 10 µM	> 10	> 10 µM	> 10	> 10 µM	> 100 µM	> 10 µM	> 10 µM	> 10 µM											
COc1ccc(C(C2=C(C)C(=O)c3ccccc3C2=O)c2ccc(C(C)C)cc(=O)c2O)cc1 (stereo not drawn)	5.12 µM	10.6	48.6 µM	17.6			10.3 µM	> 100 µM	> 100 µM											
Fc1cccc(Cl)c1C1SCc2nc3ccccc3n21 (stereo not drawn)	> 100 µM	33.2	87 µM	38	> 100 µM	37.5 µM	37.8 µM	59.5 µM	> 100 µM											
Cc1cc(O)c2c(c1)C(O)(c1ccc3c(c1O)C(=O)c1c(O)cc(C)cc1C3(O)C1OC(CO)C(O)C(O)C1O)c1cccc(O)c1C2=O (stereo not drawn)	32 µM	46.8		28	27.2 µM	25.3 µM	20.4 µM	24 µM	26.4 µM											
Cn1cc(C2=C(c3cn(C)c4ccc(N)cc34)C(=O)NC2=O)c2ccccc21	> 25 µM	> 25	> 25 µM	> 25	> 25 µM	> 25 µM		> 25 µM	> 25 µM	3.6	7.41	6.78	12.2	23.1	13100		6.4	> 20.2	4.76	> 25
